From patent US20240174622A1, “COMPOUND AND RADIOACTIVE LABELING COMPOUND” (NIHON MEDI-PHYSICS CO., LTD., priority 2021, published 2024)

What was measured:
[1] = target: human serum albumin (HSA) (Homo sapiens, UniProt P02768); test: Evaluation of binding to albumin (HSA solution, PBS control)
Method in brief: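 Albumin binding read as the split of radioactivity between eluate and retained column fraction after gamma counting. Samples in human albumin or PBS control were centrifuged 2 min at 1500×g, 4° C., through Sephadex G-100 or G-50 spin columns.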

[2] = tested on: plasma albumin (human plasma); test: Evaluation of binding to albumin (human plasma); conditions: for radioactivity in the eluate (in words): left to stand in human plasma
Experimental: A PBS solution (37 kBq, 50 μL) of [^111In]In-PSMA-DA1 or [^111In]In-PSMA-DB was added to 200 μL of PBS, mouse plasma, human plasma, or a human serum albumin (HSA) solution (45 mg/mL) in PBS, respectively, and the mixtures were allowed to stand at 37° C. for 10 minutes. Thereafter, the reaction liquids were added to a spin column ([…]; manufactured by Cytiva), and centrifuged at 1500×g at 4° C. for 2 minutes. After separation, the radioactivity for each of the column and the eluate was measured with a gamma counter.
When a compound to be evaluated binds to albumin to form a composite, the compound passes through the column because of the increased molecular size.
As in Example 1-1 described above, PBS, mouse plasma, human plasma, and human albumin were used to evaluate binding to albumin. Evaluation was carried out by the same experimental procedure and statistical method as in Example 1-1, except that a PBS solution (37 kBq, 50 μL) of [^111In]In-PtDA was used.
Thereafter, the reaction liquid was added to a spin column (Sephadex G-50; manufactured by Cytiva), and centrifuged at 1500×g at 4° C. for 2 minutes. After separation, the radioactivity of the column and the eluate was measured with a gamma counter.

[3] = tested on: LNCaP cells (PSMA-positive, human prostate cancer); test: Binding assay using cultured cells (LNCaP); type: cell-based; conditions: for binding to LNCaP cells on adding an excess amount of the PSMA inhibitor (2-PMPA): 2-PMPA final concentration 100 μM
Experimental: LNCaP cells (PSMA-positive, human prostate cancer) and PC-3 cells (PSMA-negative, human prostate cancer) were used. These cells were purchased from American Type Culture Collection and DS Biomedical, respectively. Each of the cells were cultured in RPMI 1640, which is manufactured by NACALAI TESQUE, INC. and contains antibiotics (penicillin and streptomycin) and 10% inactivated fetal bovine serum, at 37° C. under 5% CO2.
The LNCaP cells and PC-3 cells were each seeded on a 12 well plate at 4.0×10^5 cells/well, and left standing at 37° C. under 5% CO2 for 48 hours.
The culture medium was removed, and an assay medium (0.5% FBS-containing RPMI 1640 medium) solution (1 mL) containing [^111In]In-PSMA-DA1 or [^111In]In-PSMA-DB (37 kBq) was added. Thereafter, the plate was allowed to stand at 37° C. under 5% CO2 for 1 hour.
In the inhibition assays, after removing the culture medium, an assay medium (1 mL) solution containing: [^111In]In-PSMA-DA1 or [^111In]In-PSMA-DB (37 kBq); and 2-(phosphonomethyl) pentanedioic acid (2-PMPA) (PSMA inhibitor; final concentration: 100 μM) was added. Thereafter, the plate was allowed to stand at 37° C. under 5% CO2 for 1 hour.
After removing the assay medium, each well was washed with an assay medium (1 mL) containing neither the radiolabeled compound nor 2-PMPA, and the cells were lysed with 1 N aqueous sodium hydroxide solution (200 μL×2).
The radioactivity for each of the assay medium and the cell lysate was measured with a gamma counter. Separately, the total protein concentration in the cell lysate was calculated using BCA Protein Assay Kit, which is manufactured by Thermo Fisher Scientific K.K. The value (% ID/mg protein) obtained by dividing the percentage (% ID) of the sample's radioactivity amount to the added radioactivity amount by the total protein amount was calculated for each sample.
In the same manner as in Example 1-1 described above, LNCaP cells and PC-3 cells were cultured and cell-binding assay were performed. Evaluation was carried out by the same experimental procedure and statistical method as in Example 1-1, except that 0.5% FBS-containing RPMI 1640 medium (1 mL) containing [^111In]In-PtDA (37 kBq) was used.
LNCaP cells and PC-3 cells cultured in the same method as in Example 1-1 were each seeded on a 12 well plate at 4.0×10^5 cells/well, and left standing at 37° C. under 5% CO2 for 48 hours. The culture medium was removed, and an assay medium (0.5% FBS-containing RPMI 1640 medium) solution (1 mL) containing the radiolabeled compound (37 kBq each) in Examples 3-1 to 3-3 or Comparative Examples 2-1 to 2-2 was added. Thereafter, the plate was allowed to stand at 37° C. under 5% CO2 for 1 hour.
In the inhibition experiments, after removing the culture medium, an assay medium (1 mL) containing: the radiolabeled compound described above; and 2-(phosphonomethyl) pentanedioic acid (2-PMPA) (PSMA inhibitor; final concentration: 100 μM) was added. Thereafter, the plate was allowed to stand at 37° C. under 5% CO2 for 1 hour.
After removing the assay medium, each well was washed with assay medium (1 mL), and the cells were lysed with 1 N aqueous sodium hydroxide solution (200 μL×2).
Radioactivity of each of the cell lysates was measured with a gamma counter. Separately, the total protein concentration in the cell lysate was calculated using BCA Protein Assay Kit, which is manufactured by Thermo Fisher Scientific K.K. The value (% ID/mg protein) obtained by dividing the percentage (% ID) of the sample's radioactivity amount to the added radioactivity amount by the total protein amount was calculated for each sample.
LNCaP cells and PC-3 cells cultured in the same method as in Example 1-1 were each seeded on a 12 well plate at 4.0×10^5 cells/well, and left standing at 37° C. under 5% CO2 for 48 hours.
Thereafter, the plate was allowed to stand at 37° C. under 5% CO2 for 1 hour. […]

[4] = left to stand in HSA solution (45 mg/mL)

human serum albumin (HSA), sequence (P02768 25-609): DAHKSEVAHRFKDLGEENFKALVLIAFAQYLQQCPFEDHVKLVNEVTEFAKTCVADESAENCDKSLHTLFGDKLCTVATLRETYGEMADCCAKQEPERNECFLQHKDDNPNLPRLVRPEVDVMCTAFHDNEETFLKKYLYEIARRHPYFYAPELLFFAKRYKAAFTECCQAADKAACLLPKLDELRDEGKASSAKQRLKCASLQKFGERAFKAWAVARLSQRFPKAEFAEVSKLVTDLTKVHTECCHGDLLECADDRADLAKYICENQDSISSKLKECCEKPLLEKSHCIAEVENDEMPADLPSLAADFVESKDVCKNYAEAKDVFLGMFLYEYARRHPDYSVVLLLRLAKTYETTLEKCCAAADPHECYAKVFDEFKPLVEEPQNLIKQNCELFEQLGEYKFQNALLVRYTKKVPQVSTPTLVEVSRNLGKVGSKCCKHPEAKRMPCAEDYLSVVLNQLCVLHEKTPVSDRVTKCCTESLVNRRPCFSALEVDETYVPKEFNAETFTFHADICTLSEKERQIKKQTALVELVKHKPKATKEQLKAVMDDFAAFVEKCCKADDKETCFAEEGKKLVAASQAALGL

SMILES	radioactivity in the eluate (in words) [1, 4]	radioactivity in the eluate (in words) ([1]; left to stand in PBS)	radioactivity in the eluate (in words) [2]	binding to LNCaP cells on adding an excess amount of the PSMA inhibitor (2-PMPA) [3]	binding ability to LNCaP cells compared to PC-3 cells ([3]; 37° C., 1 hour)	also measured
O=C([O-])CN(Cc1cccc(C(=O)[O-])n1)C[C@H](Cc1ccc(NC(=O)[C@H](CCCCNC(=O)CCC(=O)NCCCC[C@H](NC(=O)N[C@@H](CCC(=O)O)C(=O)O)C(=O)O)NC(=O)CCCc2ccc(I)cc2)cc1)N(CC(=O)[O-])Cc1cccc(C(=O)[O-])n1.[111In+3] [[^111In]In-Octapa-2]	significantly higher	–	–	–	–	–
O=C([O-])CN1CCN(C(CCC(=O)NCCCC[C@H](NC(=O)N[C@@H](CCC(=O)O)C(=O)O)C(=O)O)C(=O)[O-])CCN(CC(=O)[O-])CCN(C(CCC(=O)N[C@@H](CCCCNC(=O)CCCc2ccc(I)cc2)C(=O)O)C(=O)[O-])CC1.[111In+3] (some centres unmarked) [[^111In]In-PSMA-DA1]	significantly higher	no significant radioactivity	significantly higher	significantly reduced	high binding ability	–
O=C([O-])CN1CCN(C(CCC(=O)NCCCC[C@H](NC(=O)N[C@@H](CCC(=O)O)C(=O)O)C(=O)O)C(=O)[O-])CCN(CC(=O)[O-])CCN(C(CCC(=O)Nc2ccccc2)C(=O)[O-])CC1.[111In+3] (some centres unmarked) [[^111In]In-PSMA-DB, reference compound]	–	no significant radioactivity	–	significantly reduced	high binding ability	–
O=C(O)CC[C@H](NC(=O)N[C@@H](CCCCNC(=O)[C@H](Cc1ccc2ccccc2c1)NC(=O)[C@H]1CC[C@H](CNC(=O)CCC(C(=O)O)N2CCN(CC(=O)O)CCN(C(CCC(=O)N[C@@H](CCCCNC(=O)CCCc3ccc(I)cc3)C(=O)O)C(=O)O)CCN(CC(=O)O)CC2)CC1)C(=O)O)C(=O)O (some centres unmarked) [[^111In]In-PSMA-NAT-DA1, metal not drawn]	–	–	significantly high	significantly reduced	high binding ability	–
O=C([O-])CN1CCN(C(CCC(=O)NCCC(=O)N2Cc3ccccc3-c3c(nnn3CCOCCOCCOCCOCCC(=O)NCCCC[C@H](NC(=O)N[C@@H](CCC(=O)O)C(=O)O)C(=O)O)-c3ccccc32)C(=O)[O-])CCN(CC(=O)[O-])CCN(C(CCC(=O)N[C@@H](CCCCNC(=O)CCCc2ccc(I)cc2)C(=O)O)C(=O)[O-])CC1.[111In+3] (some centres unmarked) [[^111In]In-PtDA]	–	–	–	–	–	radioactivity in the eluate ([2]; human plasma): 79.0%; binding to LNCaP cells with excess PSMA inhibitor (2-PMPA) ([3]; 2-PMPA 100 μM): 0.36 % ID/mg protein; binding to LNCaP cells ([3]; 37° C., 1 hour): 15 % ID/mg protein; radioactivity in the eluate ([1]; PBS): 6.9%; radioactivity in the eluate ([1]; human albumin solution): 92.4%
